Literature values in patent US20060160783A1, “Novel omeprazole forms and related methods” (Transform Pharmaceuticals, Inc., priority 2004, published 2006).

Legend:
[1] = not given; remark: listed apart in the source
[2] = according to the '188 Patent

SMILES: COc1ccc2[nH]c([S+]([O-])Cc3ncc(C)c(OC)c3C)nc2c1 (centres unmarked) [Omeprazole, 5-methoxy-2-[[(4-methoxy-3,5-dimethyl-2-pyridinyl)methyl]sulfinyl]-1H-benzimidazole]
- solubility in alkaline solutions (alkaline solutions, as a negatively charged ion): very soluble
- solubility in water (water): only slightly soluble
- stability in acidic aqueous solutions [1]: degrades very rapidly

SMILES: COc1ccc2[n-]c([S+]([O-])Cc3ncc(C)c(OC)c3C)nc2c1.[Na+] (centres unmarked) [omeprazole sodium form A]
- hygroscopicity [2]: very hygroscopic

SMILES: COc1ccc2[n-]c([S+]([O-])Cc3ncc(C)c(OC)c3C)nc2c1.[Na+] (centres unmarked) [Omeprazole sodium salt form B]
- hygroscopicity [2]: less hygroscopic than omeprazole form A
